In patent US20150299185A1, “NOVEL IMIDAZOPYRIDINE DERIVATIVES AS A TYROSINE KINASE INHIBITOR” (HANMI PHARM. CO., LTD., priority 2011, published 2015) one finds IC50 data, which are given here for 20 compounds.

Each structure is given as a SMILES string.

By IC50 is commonly meant the concentration that inhibits the measured activity by half. Low values mean inhibition by little substance, high ones a need for much substance.

One assay addresses T1, JAK3 (Homo sapiens, UniProt P52333).
T1 construct: purchased Invitrogen PV3855
The assay is described as follows: JAK3 inhibitory activity, Z-Lyte Kinase Assay Kit. It counts as biochemical. As to conditions: 60 minutes at room temperature, JAK3 enzyme (Invitrogen PV3855). As for the experimental part: (§1) Evaluation of JAK3 and BTK Inhibitory Activity
(§2) The compounds prepared in Examples 1 to 20 were tested for JAK3 and BTK inhibitory activity. Kinase inhibitory activity was measured by using Z-Lyte Kinase Assay Kit (Invitrogen), and JAK3 and BTK enzymes were purchased from Invitrogen (PV3855, PV3190).
(§3) Specifically, the compounds of Examples 1 to 20 were diluted with a 4% aqueous solution of DMSO to obtain solutions with concentrations in the range of 1˜0.0001 μM. Each kinase was diluted to 1˜10 ng/assay, and ATP was diluted to form a kinase buffer (50 mM HEPES, pH 7.4; 10 mM MgCl2; 1 mM EGTA; 0.01% BRIJ-35) by calculating an approximate Kd value. The assays were performed in 384-well polystyrene flat-bottomed plates. 5 μL of the diluted solution of the compound, peptide substrate having a suitable concentration, 10 μL of mixed kinase solution and 5 μL of ATP solution having a concentration of 5 to 300 μM were added to the sample, and allowed to react in a mixer for 60 minutes at room temperature. After 60 minutes, 10 μL of fluorescent labeling reagents was added to each mixture so as to allow fluorescent labeling of peptide substrates, followed by adding a finishing solution to complete the reaction. The fluorescence level was measured using a Molecular Device with an excitation filter at 400 nm, and an emission filter at 520 nm. The kinase inhibitory activities of the compounds were calculated in phosphorylation rates between 0˜100% against the control group (staurosporine or each of kinase inhibitor) with reference to the protocol of the kit, and percentage inhibition was calculated and plotted against concentration (x-axis) to calculate 50% inhibitory concentration (IC50). The IC50 values were obtained by using Microsoft Excel, and the results are shown in Table 5, wherein A: IC50≦50 nM, B: IC50=50˜100 nM, C: IC50=100˜1,000 nM, and D: IC50≧1,000 nM.

For another assay, the target named is T2, BTK (Homo sapiens, UniProt Q06187).
T2 construct: purchased Invitrogen PV3190
The assay is described as follows: BTK inhibitory activity, Z-Lyte Kinase Assay Kit. It counts as biochemical. The conditions noted are these: 60 minutes at room temperature, BTK enzyme (Invitrogen PV3190). As to the method: as §1, §2, §3

T2 sequence (Q06187 whole entry): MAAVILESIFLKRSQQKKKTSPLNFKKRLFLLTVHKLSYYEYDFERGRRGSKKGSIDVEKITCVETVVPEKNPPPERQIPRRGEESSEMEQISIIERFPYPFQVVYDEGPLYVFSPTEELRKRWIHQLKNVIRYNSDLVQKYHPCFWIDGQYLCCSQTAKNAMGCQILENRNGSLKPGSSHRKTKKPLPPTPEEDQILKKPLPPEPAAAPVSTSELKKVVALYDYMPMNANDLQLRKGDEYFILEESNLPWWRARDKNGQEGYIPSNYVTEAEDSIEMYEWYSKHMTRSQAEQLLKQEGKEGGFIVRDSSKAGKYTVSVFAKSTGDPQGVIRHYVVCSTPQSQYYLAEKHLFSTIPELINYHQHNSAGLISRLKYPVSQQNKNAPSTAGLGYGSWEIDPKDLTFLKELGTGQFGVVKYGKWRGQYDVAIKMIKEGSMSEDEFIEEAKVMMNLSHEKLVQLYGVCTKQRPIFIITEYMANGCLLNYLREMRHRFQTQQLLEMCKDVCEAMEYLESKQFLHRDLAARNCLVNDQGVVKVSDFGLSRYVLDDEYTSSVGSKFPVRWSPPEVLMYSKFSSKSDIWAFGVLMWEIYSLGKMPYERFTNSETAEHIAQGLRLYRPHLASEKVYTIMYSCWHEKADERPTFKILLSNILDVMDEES
T1 sequence (P52333 781-1124 limits assumed): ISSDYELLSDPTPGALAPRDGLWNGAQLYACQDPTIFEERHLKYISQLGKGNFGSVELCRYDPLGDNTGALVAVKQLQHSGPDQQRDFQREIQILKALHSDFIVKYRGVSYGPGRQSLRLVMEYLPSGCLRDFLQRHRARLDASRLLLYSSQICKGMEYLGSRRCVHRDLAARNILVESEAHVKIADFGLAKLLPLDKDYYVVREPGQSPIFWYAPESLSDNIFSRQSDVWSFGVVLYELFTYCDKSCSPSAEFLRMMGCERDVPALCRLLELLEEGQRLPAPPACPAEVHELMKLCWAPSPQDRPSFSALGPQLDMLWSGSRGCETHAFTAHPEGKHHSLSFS

Regarding `C=CC(=O)Nc1cccc(Oc2c(Cl)cnc3[nH]c(-c4ccc(CN5CCCCC5)cc4)nc23)c1` [Example 15, N-(3-(6-chloro-2-(4-(piperidin-1-ylmethyl)phenyl)-3H-imidazo[4,5-b]pyridin-7-yloxy)phenyl)acrylamide], the IC50 at JAK3 and on BTK was no more than 50 nM in each case.
Consider `C=CC(=O)Nc1cccc(Oc2c(Cl)cnc3[nH]c(-c4ccc(C(=O)NC5CCN(C)CC5)cc4)nc23)c1` [Example 10, 4-(7-(3-acrylamidophenoxy)-6-chloro-3H-imidazo[4,5-b]pyridin-2-yl)-N-(1-methylpiperidin-4-yl)benzamide], for which the IC50 at BTK is 50 to 100 nM.
As for `C=CC(=O)Nc1cccc(Oc2c(Cl)cnc3[nH]c(-c4ccc(CN5CCCC5)cc4)nc23)c1` [Example 14, N-(3-(6-chloro-2-(4-(pyrroldin-1-ylmethyl)phenyl)-3H-imidazo[4,5-b]pyridin-7-yloxy)phenyl)acrylamide], the IC50 at JAK3 and on BTK was no more than 50 nM throughout.
For `C=CC(=O)Nc1cccc(Oc2c(Cl)cnc3[nH]c(-c4ccc(CN(C)CC)cc4)nc23)c1` [Example 12, N-(3-(6-chloro-2-(4-((ethyl(methyl)amino)methyl)phenyl)-3H-imidazo[4,5-b]pyridin-7-yloxy)phenyl)acrylamide], the IC50 against JAK3 and at BTK was no more than 50 nM each time.
In the case of `C=CC(=O)Nc1cccc(Oc2c(Cl)cnc3[nH]c(-c4ccc(CN(C)C)cc4)nc23)c1` [Example 11, N-(3-(6-chloro-2-(4-((dimethylamino)methyl)phenyl)-3H-imidazo[4,5-b]pyridin-7-yloxy)phenyl)acrylamide], the IC50 against JAK3 and on BTK was no more than 50 nM in each case.
Consider `C=CC(=O)Nc1cccc(Oc2c(Cl)cnc3[nH]c(-c4ccc(CN(CC)CC)cc4)nc23)c1` [Example 13, N-(3-(6-chloro-2-(4-((diethylamino)methyl)phenyl)-3H-imidazo[4,5-b]pyridin-7-yloxy)phenyl)acrylamide], for which the IC50 at JAK3 and against BTK was no more than 50 nM in each case.
Take `C=CC(=O)Nc1cccc(Oc2c(Cl)cnc3[nH]c(-c4ccc(NC5CCN(C)CC5)cc4)nc23)c1` [Example 5, N-(3-(6-chloro-2-(4-(1-methylpiperidin-4-ylamino)phenyl)-3H-imidazo[4,5-b]pyridin-7-yloxy)phenyl)acrylamide]: the 50% inhibitory concentration (IC50) against JAK3 and at BTK was no more than 50 nM each time.
In the case of `C=CC(=O)Nc1cccc(Oc2c(Cl)cnc3[nH]c(-c4ccc(N(C)C)cc4)nc23)c1` [Example 6, N-(3-(6-chloro-2-(4-(dimethylamino)phenyl)-3H-imidazo[4,5-b]pyridin-7-yloxy)phenyl)acrylamide], the IC50 on BTK is 100 to 1000 nM.
With `C=CC(=O)Nc1cccc(Oc2c(Cl)cnc3[nH]c(-c4ccc(C(=O)N(C)C)cc4)nc23)c1` [Example 8, 4-(7-(3-acrylamidophenoxy)-6-chloro-3H-imidazo[4,5-b]pyridin-2-yl)-N,N-dimethylbenzamide], the IC50 was 50 to 100 nM at JAK3 and no more than 50 nM against BTK.
At BTK, `C=CC(=O)Nc1cccc(Oc2c(Cl)cnc3[nH]c(-c4ccc(OC)cc4)nc23)c1` [Example 18, N-(3-(6-chloro-2-(4-methoxyphenyl)-3H-imidazo[4,5-b]pyridin-7-yloxy)phenyl)acrylamide] had an IC50 of 100 to 1000 nM.
With `C=CC(=O)Nc1cccc(Oc2c(Cl)cnc3[nH]c(-c4ccc(N5CCC(O)CC5)cc4)nc23)c1` [Example 2, N-(3-(6-chloro-2-(4-(4-hydroxypiperidin-1-yl)phenyl)-3H-imidazo[4,5-b]pyridin-7-yloxy)phenyl)acrylamide], the IC50 on JAK3 lay within 100 to 1000 nM; against BTK it was 50 to 100 nM.
On BTK, `C=CC(=O)Nc1cccc(Oc2c(Cl)cnc3[nH]c(-c4ccc([S+](C)[O-])cc4)nc23)c1` (stereo not shown) [Example 7, N-(3-(6-chloro-2-(4-(methylsulphinyl)phenyl)-3H-imidazo[4,5-b]pyridin-7-yloxy)phenyl)acrylamide] came in with an IC50 of no more than 50 nM.
As to `C=CC(=O)Nc1cccc(Oc2ccnc3[nH]c(-c4ccc(N5CCN(C)CC5)cc4)nc23)c1` [Example 20, N-(3-(2-(4-(4-methylpiperazin-1-yl)phenyl)-3H-imidazo[4,5-b]pyridin-7-yloxy)phenyl)acrylamide], the IC50 at JAK3 and at BTK was 100 to 1000 nM each time.
For `C=CC(=O)Nc1cccc(Oc2c(Cl)cnc3[nH]c(-c4ccc(C(=O)N5CCN(C)CC5)cc4)nc23)c1` [Example 3, N-(3-(6-chloro-2-(4-(4-methylpiperazin-1-carbonyl)phenyl)-3H-imidazo[4,5-b]pyridin-7-yloxy)phenyl)acrylamide], the figures for the IC50 at JAK3 and against BTK were 100 to 1000 nM and no more than 50 nM, respectively.
Turning to `C=CC(=O)Nc1cccc(Oc2c(Cl)cnc3[nH]c(-c4ccc(CN5CCN(C)CC5)cc4)nc23)c1` [Example 17, N-(3-(6-chloro-2-(4-((4-methylpiperazin-1-yl)methyl)phenyl)-3H-imidazo[4,5-b]pyridin-7-yloxy)phenyl)acrylamide], the IC50 at JAK3 is no more than 50 nM; on BTK, 50 to 100 nM.
For `C=CC(=O)Nc1cccc(Oc2c(Cl)cnc3[nH]c(-c4ccc(CN5CCOCC5)cc4)nc23)c1` [Example 16, N-(3-(6-chloro-2-(4-(morpholinomethyl)phenyl)-3H-imidazo[4,5-b]pyridin-7-yloxy)phenyl)acrylamide], the IC50 at JAK3 is no more than 50 nM; against BTK, 50 to 100 nM.
Take `C=CC(=O)Nc1cccc(Oc2c(Cl)cnc3[nH]c(-c4ccc(N5CCN(C)CC5)cc4)nc23)c1` [Example 1, N-(3-(6-chloro-2-(4-(4-methylpiperazin-1-yl)phenyl)-3H-imidazo[4,5-b]pyridin-7-yloxy)phenyl)acrylamide]: the IC50 is 50 to 100 nM at JAK3 and no more than 50 nM against BTK.
As for `C=CC(=O)Nc1cccc(Oc2c(Cl)cnc3[nH]c(-c4ccncc4)nc23)c1` [Example 19, N-(3-(6-chloro-2-(pyridin-4-yl)-3H-imidazo[4,5-b]pyridin-7-yloxy)phenyl)acrylamide], the IC50 is no more than 50 nM on JAK3 and 100 to 1000 nM against BTK.
On BTK, `C=CC(=O)Nc1cccc(Oc2c(Cl)cnc3[nH]c(-c4ccc(C(=O)N5CCOCC5)cc4)nc23)c1` [Example 4, N-(3-(6-chloro-2-(4-(morpholin-4-carbonyl)phenyl)-3H-imidazo[4,5-b]pyridin-7-yloxy)phenyl)acrylamide] returned a half-inhibitory concentration (IC50) of no more than 50 nM.
The compound `C=CC(=O)Nc1cccc(Oc2c(Cl)cnc3[nH]c(-c4ccc(C(=O)O)cc4)nc23)c1` [Example 9, 4-(7-(3-acrylamidophenoxy)-6-chloro-3H-imidazo[4,5-b]pyridin-2-yl)-benzoic acid] displayed an IC50 against BTK of 100 to 1000 nM.
